Experimental data published in patent US9689042B2, “Use of glycolytic pathways for inhibiting or measuring oncogenic signaling” (The Regents of the University of California, priority 2012, dated 2017).
Entries after “also recorded” stand apart in the source; their conditions may differ. d = 2'-deoxy (DNA); r = 2'-OH (RNA)

How the values were obtained:
T4-2 cells [1] = test: Mitochondrial activity (MitoTracker oxidation) assay in 3D lrECM; format: cell-based, human
Protocol: (§1) Cells suspended in 200 μl lrECM were seeded in 12 well glass-bottom plates (14 mm diameter; MatTek Corporation). Gels were overlaid with 500 μl H14 media and cultured for 10 days before each assay unless otherwise described.
For mitochondrial activity, we slightly modified the method described previously (Morici et al., 2007). Briefly, cells were incubated with 2 μM MitoTracker® Orange CM-H2 TMRos (Invitrogen) for 1 hour and fixed with PFA as above. Cells were counterstained with Hoechst 33342 (Invitrogen), which is known also to bind to DNA stoichiometrically, then MitoTracker and Hoechst staining were measured by taking z-section images from top to bottom of the gels using confocal microscopy.
(§2) In each assay, one well, containing only lrECM, was made for background measurements. Glucose uptake measured by 2DG uptake, lactate production and MitoTracker staining were normalized using total DNA levels, and presented relative to that of control (either S1 or non-treated T4-2 cells).

[2] = tested on: EGFR, β1 integrin, Akt, MEK, GLUT3, glycolytic enzymes in T4-2 cells; test: Western blots of signaling intermediates, GLUT3 and metabolic enzymes in 3D lrECM cultures of T4-2 cells; format: cell-based, human; conditions: 3D lrECM; for recovery of β1 integrin expression and Akt activity by supplementation: T4-2 cells reverted by IA 20 μM or 1.75 mM glucose, PEP 0.5 mM, ESCA 20 μM
Protocol: Cell colonies were separated from lrECM gels by shaking in PBS containing 5 mM EDTA and the proteinase inhibitor cocktail set I (Calbiochem) on ice for 30 min. Cells were lysed in lysis buffer (1% NP-40, 1% deoxycholate, 2% SDS, 150 mM NaCl, 20 mM Tris-HCl [pH 7.4] plus 5 mM EDTA and protease inhibitor cocktail set I and phosphatase inhibitor cocktail set I [Calbiochem]) and sonicated three times for 30 sec each. Proteins were separated by SDS-PAGE, transferred to nitrocellulose membranes, and probed with antibodies against the following proteins: phosphorylated MEK, MEK, phosphorylated Akt, Akt, phosphorylated AMPK, AMPK, p70S6K, phosphorylated p70S6K, CHOP, EPAC1 (Cell Signaling), β1 integrin, EGFR, activated EGFR, HIF-1α, (Chemicon International), PFKP (Abgent), GAPDH, GLUT3 (GeneTex), LDHA, PDHE1α, DLAT, DLD, HIF-3α, Rap1, sAC, EPAC2, OGT, Lamin A/C (Santa Cruz Biotechnology), Aldolase (Polysciences), GFPT (ProteinTech Group), HIF-2α (Abcam), and HA-tag (Covance). After probing with HRP-conjugated secondary antibodies, blots were developed using SuperSignal West Femto chemiluminescence reagent (Pierce Biotechnology). Images were captured using Fluor Chem 8900 imager (Alpha Innotech).

T4-2 cells [3] = test: Lactate production assay in 3D lrECM; format: cell-based, human
Protocol: as §1
For lactate production, on day 9, conditioned-media were harvested to measure lactate remaining in the 200 μl of the gel (assuming equilibrium between medium and gel, C0 nmol/μl). […] After 24 hours, total culture medium was harvested for measurement of final lactate concentrations (C nmol/μl) and total volumes (V μl) of the conditioned-media, and the cells in gel were fixed with PFA as above. Concentration of lactate in each sample was measured using a lactate assay kit (BioVision). Net lactate production within 24 hours (N) was calculated as follows: N=C×(V+200)−C0×200. Fixed cells were stained with DRAQ5, to measure total level of DNA as a surrogate for number of cells, and the staining was measured as above.
as §2

T4-2 cells [4] = test: Glucose uptake assay (IRDye800CW-2DG) in 3D lrECM; format: cell-based, human
Protocol: as §1
For glucose uptake assay, cells were incubated with 1 μM of IRDye800CW-2DG (LI-COR Biosciences) for 1 hour, fixed within gels with 4% paraformaldehyde (PFA) in PBS for 30 min. and stained with DRAQ5 (1:10000 dilution), an infrared dye that binds stoichiometrically to DNA, for 30 min. Cells were extensively washed with PBS, then IRDye800-2DG uptake together with DRAQ5 staining were measured by using Odyssey Infrared Imaging System (LI-COR Biosciences).
as §2

T4-2 cells [5] = conditions: for phenotypic reversion of the malignant phenotype / basal polarity / organized acinar structures / growth / proliferation (cell numbers at the colony mid-section, EdU incorporation) / rescue of the malignant (disorganized) phenotype by supplementation: 3D lrECM; for phenotypic reversion of the malignant phenotype: 2DG 4 mM, IA 20 μM, OX 50 mM, Azs 20 μM, DON 20 μM, BADGP 5 mM, TM 10 ng/ml, OGM 4 ng/ml, Rapa 0.01-1.0 μM; for basal polarity / organized acinar structures / growth / proliferation (cell numbers at the colony mid-section, EdU incorporation): same inhibitor concentrations as E1; for rescue of the malignant (disorganized) phenotype by supplementation: T4-2 cells reverted by IA 20 μM or 1.75 mM glucose, PEP 0.5 mM, pyruvate
Protocol: (§3) HMT-3522 cells were cultured on tissue culture plastic (2D) and in 3D lrECM gels with H14 medium, a 1:1 mix of DMEM/F12 (UCSF Cell Culture Facility) supplemented with 250 ng/ml insulin, 10 μg/ml transferrin, 2.6 ng/ml sodium selenite, 0.1 nM β-estradiol, 1.4 μM hydrocortisone and 5 μg/ml prolactin but no serum. S1 cells were additionally supplemented with 10 ng/ml EGF. MDA-MB-231 and HCC70 cells were cultured in DMEM and RPMI1640, respectively, and were supplemented with 10% fetal bovine serum (FBS).
(§4) For 3D lrECM cultures, S1 and T4-2 cells were seeded at 840,000 and 600,000 cells per cm3 respectively in lrECM gel (Cultrex), overlaid with H14 medium. MDA-MB-231 and HCC70 cells were seeded at 625,000 cell per cm3 and overlaid with H14 medium supplemented with 1% FBS. Cells were used for each assay after 10 days, unless otherwise indicated.
Pieces of lrECM gel containing cell colonies were suspended in approximately the same volume of phosphate buffered saline (PBS) and directly spread on glass slides. After brief air-drying, colonies were fixed with 3.7% paraformaldehyde (PFA) in PBS at room temperature (RT) for 10 min, washed with PBS containing 0.1 mM glycine, and permeabilized with 1:1 methanol/acetone at −20° C. for 10 min. After blocking with IF buffer (0.2% Triton X-100, 0.1% BSA [radioimmunoassay grade], 0.05% Tween 20, 7.7 mM NaN3 in PBS) containing 10% goat serum and 1% goat F(ab′)2 anti-mouse immunoglobulin G (IgG; Caltag) at RT for 30 min, colonies were stained with anti-α6 integrin antibody (Chemicon International) at 4° C. overnight. Colonies were washed extensively with IF buffer, and stained with Alexa 568-labeled anti-rat IgG antibody at RT for 2 hr. Colonies were washed with IF buffer again, and nuclei were stained with DAPI at RT for 10 min. Slides were briefly washed with PBS and mounted with 50% glycerol in PBS.
To test whether increased glucose metabolism itself is required for oncogenic signaling events, we utilized 3D lrECM cultures of HMT-3522, a breast cancer progression series which includes non-malignant (S1) and malignant (T4-2) human breast epithelial cells from the same individual (Briand et al., 1987; Petersen et al., 1992; Rizki et al., 2008). Using these cells, we have described the involvement and reciprocity of multiple signaling pathways including EGFR, β1 integrin, PI3K-Akt and MEK-ERK in oncogenic events (Beliveau et al., 2010; Bissell et al., 2005). […] We thus used this “phenotypic reversion” of the cancer cells as an assay to examine how the signaling integration plan of the breast acini could involve glucose metabolism.

Rap1 = test: Measurement of Rap1 activity (GST-RalGDS-RBD pull-down) in T4-2 cells; format: cell-based, human; conditions: T4-2 cells treated with IA 20 μM or 1.75 mM glucose; PEP 0.5 mM, ESCA 20 μM
Protocol: Rap1 activity was measured as described previously (Itoh et al., 2007). Briefly, cell colonies were extracted from lrECM as described above, and lysed in lysis buffer (50 mM Tris-HCl [pH 7.4], 500 mM NaCl, 1% NP40, 2.5 mM MgCl2, 10% glycerol, 10 μg/ml aprotinin and 10 μg/ml leupeptin) at 4° C. for 30 min. Lysates were cleared by centrifugation at 15,000×g at 4° C. for 15 min. Supernatants (containing 300 μg protein in 300 μl) were incubated with 15 μg of GST-tagged RalGDS-RBD fusion protein immobilized on Glutathione Sepharose 4B beads (GE Healthcare), at 4° C. for 1 hr. Beads were washed trice in lysis buffer and resuspended in Laemmli buffer. Samples were separated by SDS-PAGE, followed by transfer to polyvinylidene fluoride membranes (0.2 μm pore) and immunoblotting using anti-Rap1 antibody.

S1 cells = test: 3D lrECM culture of non-malignant S1 cells: acinar morphology and growth; format: cell-based, human; conditions: 2DG 4 mM, OGM 4 ng/ml
Protocol: as §3, §4
Pieces of lrECM gel containing cell colonies were suspended in approximately the same volume of phosphate buffered saline (PBS) and directly spread on glass slides. After brief air-drying, colonies were fixed with 3.7% paraformaldehyde (PFA) in PBS at room temperature (RT) for 10 min, washed with PBS containing 0.1 mM glycine, and permeabilized with 1:1 methanol/acetone at −20° C. for 10 min. […]

T4-2 cells [6] = test: siRNA knockdown in T4-2 cells cultured in 3D-on top (3D-OT) lrECM; format: cell-based, human; conditions: 3 days
Protocol: For experiments that need to be done in shorter-term (e.g. cultures of siRNA-transfected cells or for live imaging), cells were seeded at 60,000 cells per cm2 on top (3D-OT) of lrECM gels overlaid with H14 medium containing 5% (v/v) lrECM. Cells were harvested after 3 days.
Predesigned siRNA duplexes targeting GLUT3, GFPT1, GFPT2 and OGT, as well as control siRNA were obtained from Ambion. The other siRNA duplexes were chemically synthesized and purchased from Hokkaido System Science. The sequences are as follows:
For transfection of each siRNA into T4-2 cells, Lipofectamine RNAi MAX (Invitrogen) was used, according to the manufacturer's instruction. Cells were trypsinized 36 hrs after transfection and cultured in 3D-OT lrECM for 3 days before harvest.

Molecule: [N-]=[N+]=CC(=O)OC[C@H](N)C(=O)O [AZS, Azaserine]
- mitochondrial activity (oxidation) (T4-2 cells [1]): remained unaltered
- levels and/or activities of EGFR, β1 integrin, Akt and MEK (oncogenic signaling) ([2]; T4-2 cells, Western blot): suppression of activation of oncogenic signaling
- EGFR expression and activity ([2]; T4-2 cells, Azs 20 μM, DON 20 μM): significantly down-regulated
- lactate production (T4-2 cells [3]): significantly down-regulated
- glucose uptake (T4-2 cells [4]): significantly down-regulated
- phenotypic reversion of the malignant phenotype (T4-2 cells [5]; T4-2 cells): do induce phenotypic reversion; also recorded: induced the repertoire of the reversion phenotype
- basal polarity / organized acinar structures (T4-2 cells [5]; T4-2 cells): re-establishment of tissue polarity
- growth / proliferation (cell numbers at the colony mid-section, EdU incorporation) (T4-2 cells [5]; T4-2 cells): growth arrest

Molecule: CC(=O)N[C@H]1[C@@H](OCc2ccccc2)O[C@H](CO)[C@H](O)[C@@H]1O [BADGP, Benzyl-2-acetamido-2-deoxy-α-D-galactopyranoside]
- phenotypic reversion of the malignant phenotype (T4-2 cells [5]; T4-2 cells): do induce phenotypic reversion; also recorded: induced phenotypic reversion

Molecule: CO[C@@H]1[C@@H]2OP(=O)(O)OC[C@H]2O[C@H]1n1c(Sc2ccc(Cl)cc2)nc2c(N)ncnc21 [ESCA, 8CPT-2′-OMe-cAMP]
- recovery of β1 integrin expression and Akt activity by supplementation [2]: partially restored
- Rap1 reactivation by supplementation (Rap1): reactivated Rap1
- rescue of the malignant (disorganized) phenotype by supplementation (T4-2 cells [5]; ESCA 20 μM): loss of tissue polarity
- restoration of proliferation by supplementation (T4-2 cells [5]; T4-2 cells treated with IA 20 μM or 1.75 mM glucose, ESCA 20 μM): did not restore proliferation to the level of non-treated cultures

Molecule: CC(Sc1nc2ccccc2[nH]1)C(=O)N/N=C/c1cc(Br)ccc1O (centres unmarked) [KH7]
- reactivation (disorganization, Rap1, β1 integrin and Akt) on raising glucose from 1.75 mM to 5.5 mM (T4-2 cells [5]; T4-2 cells reverted in 1.75 mM glucose, then 5.5 mM glucose with KH7): almost completely abolished
- phenotypic reversion of the malignant phenotype (T4-2 cells [5]; T4-2 cells): do induce phenotypic reversion

Molecule: CC[C@H]1/C=C/C=C/C[C@@H](C)[C@H](O)[C@@](C)(O)C(=O)[C@@H](C)[C@H](O)[C@@H](C)C(=O)[C@@H](C)[C@H](O)[C@@H](C)/C=C/C(=O)O[C@@H]2[C@H](C)[C@H](CC1)O[C@]1(CC[C@H](C)[C@H](C[C@@H](C)O)O1)[C@H]2C [OGM, Oligomycin]
- acinar morphology, basal polarity and growth rate of non-malignant cells (S1 cells): lost basal tissue polarity
- phenotypic reversion of the malignant phenotype (T4-2 cells [5]; T4-2 cells): do not induce phenotypic reversion
- basal polarity / organized acinar structures (T4-2 cells [5]; T4-2 cells): did not induce organized structures
- growth / proliferation (cell numbers at the colony mid-section, EdU incorporation) (T4-2 cells [5]; T4-2 cells): suppressing proliferation significantly

Molecule: C=C(OP(=O)(O)O)C(=O)O [PEP, phosphoenolpyruvate]
- recovery of β1 integrin expression and Akt activity by supplementation [2]: partially recovered
- Rap1 reactivation by supplementation (Rap1): Rap1 reactivation
- rescue of the malignant (disorganized) phenotype by supplementation (T4-2 cells [5]; ESCA 20 μM): reproduced the disorganized structure

Molecule: GAPDH siRNA: chemically synthesized siRNA duplex targeting GAPDH, SEQ ID NO: 1 and SEQ ID NO: 2 (chain 1 GAGCCACAUCGCUCAGACA; chain 2 UGUCUGAGCGAUGUGGCUC; listed as RNA, chemistry not fully specified)
- phenotype after siRNA knockdown (reversion) (T4-2 cells [6]): essentially reproduced the above results

Molecule: Tunicamycin [TM]
- phenotypic reversion of the malignant phenotype (T4-2 cells [5]; T4-2 cells): do not induce phenotypic reversion; also recorded: did not lead to phenotypic reversion
- cell death (T4-2 cells [5]; T4-2 cells, increasing amounts of tunicamycin (data not shown)): induced significant cell death

Molecule: sAC siRNA: chemically synthesized siRNA duplex targeting sAC, SEQ ID NO: 7 and SEQ ID NO: 8 (chain 1 AUGUAGCCUGGAGAUCCAUTT; chain 2 AUGGAUCUCCAGGCUACAUTT; sugars from the 5' end r19 d2, backbone not given here)
- phenotype after siRNA knockdown (reversion) (T4-2 cells [6]): induced phenotypic reversion
